Results: US20170165253A1, “TREATMENT OF SEXUAL DYSFUNCTION AND FOR IMPROVED SEXUAL QUALITY OF LIFE” (ReJoy, priority 2015, published 2017)
Structures can show the parent of a compound that is named as a salt.

The molecules below were run on areola (assay: Dose study of nipple erection and sensitivity, topical oxymetazoline (Example 7)). Details: 0.5% topical solution.
Assay type: in vivo, human
Procedure: Oxymetazoline HCl 0.1%, 0.2%, 0.5%. A study was conducted to assess the dosage of topical oxymetazoline solution required to elicit nipple erection and sensitivity. Five premenopausal subjects participated in the study. Subjects were not hypertensive, pregnant or breastfeeding. Three formulations were used: Formula A: 0.1% topical oxymetazoline hydrochloride solution; Formula B: 0.2% topical oxymetazoline hydrochloride solution; Formula C: 0.5% topical oxymetazoline hydrochloride solution.
The study was conducted over 3 days. On day 1, subjects were instructed to apply Formula A to both areolas. On day 2, subjects were instructed to apply Formula B to both areolas. On day 3, subjects were instructed to apply Formula C to both areolas. 0.1 mL of each formula was applied using a metered dosage dispenser to each areola. […] With the 0.5% topical oxymetazoline solution, response in nipple erection and sensitivity was obtained approximately within 1 hour and lasted over 8 hours.

Q: How did the duration of response turn out when `Cc1cc(C(C)(C)C)c(O)c(C)c1CC1=NCCN1` [oxymetazoline, oxymetazoline hydrochloride] was run?
A: over 8 hours

Q: And the “time to response in nipple erection and sensitivity” value?
A: ≤ 1 h

These molecules were tested on NAC (assay: Acetylcholine receptor agonists: nipple erection and sensitivity (Example 13)). Details: single topical dose to one NAC, one subject per agent.
Assay type: in vivo, human
Procedure: A study was conducted to assess the effectiveness of different acetylcholine receptor agonists on eliciting nipple erection and increasing nipple sensitivity in normal women aged 18-65. Ten subjects were recruited. Each subject was randomly assigned a single agonist. Each subject self-administered a single dose of the agonist to one NAC that was self-reported as the least sensitive (or if no differential sensitivity, then the left NAC). The agonists were applied in topical solutions to the NAC. The subject was supervised by a medical professional. Blood pressure and heart rate were monitored at baseline, 5 minutes, 10 minutes, and 30 minutes. […] Subjects were asked to report if they experienced nipple erection and sensitivity in less than 10 minutes and if the effect lasted more or less than 10 minutes. The subjects all responded to the agonists. The effect was short-lived; however, sensitivity is some of the subjects was reported up 60 minutes later.

Q: Which “Nipple Sensitivity Effect Duration” value does the source give for `CC(=O)OCC[N+](C)(C)C` [Acetylcholine] here?
A: <5 min

Q: What does the source list for `CN1[C@@H](CC(=O)c2ccccc2)CCC[C@H]1C[C@H](O)c1ccccc1` [Alpha-Lobeline]?
A: Nipple Erection (Yes/No): Yes; Nipple Sensitivity (Yes/No): Yes; Nipple Sensitivity Effect Duration: <10 min

Q: Which results are given for `CC(C[N+](C)(C)C)OC(N)=O` (stereo not shown) [Bethanechol]?
A: Nipple Erection (Yes/No): Yes; Nipple Sensitivity (Yes/No): Yes; Nipple Sensitivity Effect Duration: <10 min

Q: With `C[N+](C)(C)CCOC(N)=O` [Carbachol] as the molecule, how does the “Nipple Erection (Yes/No)” value read?
A: Yes

Q: What about the “Nipple Sensitivity (Yes/No)” value of the same molecule?
A: Yes

Q: And the “Nipple Sensitivity Effect Duration” value?
A: <10 min

Q: With `CC1OC2(CS1)CN1CCC2CC1` (stereo not shown) [Cevimeline] as the molecule, how does the “Nipple Erection (Yes/No)” value read?
A: Yes

Q: And the “Nipple Sensitivity (Yes/No)” value?
A: Yes

Q: And the “Nipple Sensitivity Effect Duration” value?
A: <10 min

Q: `CC(=O)OC(C)C[N+](C)(C)C.[Cl-]` (stereo not shown) [Mecholyl] was tested. Which “Nipple Erection (Yes/No)” value did it give?
A: Yes

Q: And the “Nipple Sensitivity (Yes/No)” value?
A: Yes

Q: And the “Nipple Sensitivity Effect Duration” value?
A: <10 min

Q: What does the source list for `CCN(CC)CCNC(=O)c1cc(Cl)c(N)cc1OC` [Metaclopramide]?
A: Nipple Erection (Yes/No): Yes; Nipple Sensitivity (Yes/No): Yes; Nipple Sensitivity Effect Duration: <10 min

Q: With `CC(=O)OC(C)C[N+](C)(C)C` (stereo not shown) [Methacholine] as the molecule, how does the “Nipple Erection (Yes/No)” value read?
A: Yes

Q: What about the “Nipple Sensitivity (Yes/No)” value of the same molecule?
A: Yes

Q: And the “Nipple Sensitivity Effect Duration” value?
A: <10 min

Q: `CN1CCCC1c1cccnc1` (stereo not shown) [Nicotine] was tested. Which “Nipple Erection (Yes/No)” value did it give?
A: Yes

Q: What about the “Nipple Sensitivity (Yes/No)” value of the same molecule?
A: Yes

Q: And the “Nipple Sensitivity Effect Duration” value?
A: <10 min

Q: Which results are given for `CC[C@@H]1C(=O)OC[C@@H]1Cc1cncn1C` [Pilocarpine]?
A: Nipple Erection (Yes/No): Yes; Nipple Sensitivity (Yes/No): Yes; Nipple Sensitivity Effect Duration: <5 min

Same assay, conditions: single topical dose to one NAC, one subject per agent, 0.4-12.5 mg/cm^2

Q: Which “Onset Time” value does the source give for `CC(=O)OCC[N+](C)(C)C` [Acetylcholine] here?
A: <10 min

Q: With `CN1[C@@H](CC(=O)c2ccccc2)CCC[C@H]1C[C@H](O)c1ccccc1` [Alpha-Lobeline] as the molecule, how does the “Onset Time” value read?
A: <10 min

Q: Which “Onset Time” value does the source give for `CC(C[N+](C)(C)C)OC(N)=O` (stereo not shown) [Bethanechol] here?
A: <10 min

Q: For `C[N+](C)(C)CCOC(N)=O` [Carbachol], which “Onset Time” value is on record?
A: <10 min

Q: How did the “Onset Time” value turn out when `CC1OC2(CS1)CN1CCC2CC1` (stereo not shown) [Cevimeline] was run?
A: <10 min

Q: Which “Onset Time” value does the source give for `CC(=O)OC(C)C[N+](C)(C)C.[Cl-]` (stereo not shown) [Mecholyl] here?
A: <10 min

Q: `CCN(CC)CCNC(=O)c1cc(Cl)c(N)cc1OC` [Metaclopramide] was tested. Which “Onset Time” value did it give?
A: <10 min

Q: Which “Onset Time” value does the source give for `CC(=O)OC(C)C[N+](C)(C)C` (stereo not shown) [Methacholine] here?
A: <10 min

Q: `CN1CCCC1c1cccnc1` (stereo not shown) [Nicotine] was tested. Which “Onset Time” value did it give?
A: <10 min

Q: For `CC[C@@H]1C(=O)OC[C@@H]1Cc1cncn1C` [Pilocarpine], which “Onset Time” value is on record?
A: <10 min
